From patent US20240300927A1, “AMIDES AS CBL-B INHIBITORS” (Genentech, Inc., priority 2021, published 2024)

Tests used:
c-Cbl = c-Cbl (Homo sapiens (Human), UniProt P22681); assay: C-cbl LCK Ub TR-FRET assay (C-cbl Lck HTRF); assay type: biochemical
Summary of the method: (§1)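 Biotin-Cbl-b (16 nM) or biotin-c-Cbl (12 nM) at 2× preincubated with compound 60 min, then His-LCK (120 nM), 1 mM ATP and MgCl2 (2× mix) added for 90 min at RT. Buffer: HEPES pH 7.0, DTT. UBE2D2–HA-ubiquitin transfer read by TR-FRET (665/615 nm); IC50 versus no-LCK and DMSO controls, 10-point dilutions.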

Cbl-b = Cbl-b (Homo sapiens (Human), UniProt Q13191); assay: Cbl-b LCK Ub TR-FRET assay (Cbl-b Lck HTRF); assay type: biochemical; conditions: for (fold-selectivity): Cbl-b and C-Cbl selectivity, Lck HTRF; for IC50: read-out: Cbl-b Lck HTRF IC50
Summary of the method: as §1

Sequence of Cbl-b (Q13191 40-426): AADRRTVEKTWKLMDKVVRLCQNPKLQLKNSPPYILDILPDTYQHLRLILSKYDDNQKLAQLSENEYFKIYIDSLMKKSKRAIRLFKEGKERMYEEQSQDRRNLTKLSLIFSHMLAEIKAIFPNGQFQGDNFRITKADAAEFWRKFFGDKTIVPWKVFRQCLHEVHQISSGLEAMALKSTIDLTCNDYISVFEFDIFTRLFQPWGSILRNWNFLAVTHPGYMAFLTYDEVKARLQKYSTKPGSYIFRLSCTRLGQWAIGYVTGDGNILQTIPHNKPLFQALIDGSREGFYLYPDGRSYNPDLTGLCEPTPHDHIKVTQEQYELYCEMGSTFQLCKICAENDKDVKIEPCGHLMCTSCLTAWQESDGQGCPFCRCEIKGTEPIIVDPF
Sequence of c-Cbl (P22681 47-435): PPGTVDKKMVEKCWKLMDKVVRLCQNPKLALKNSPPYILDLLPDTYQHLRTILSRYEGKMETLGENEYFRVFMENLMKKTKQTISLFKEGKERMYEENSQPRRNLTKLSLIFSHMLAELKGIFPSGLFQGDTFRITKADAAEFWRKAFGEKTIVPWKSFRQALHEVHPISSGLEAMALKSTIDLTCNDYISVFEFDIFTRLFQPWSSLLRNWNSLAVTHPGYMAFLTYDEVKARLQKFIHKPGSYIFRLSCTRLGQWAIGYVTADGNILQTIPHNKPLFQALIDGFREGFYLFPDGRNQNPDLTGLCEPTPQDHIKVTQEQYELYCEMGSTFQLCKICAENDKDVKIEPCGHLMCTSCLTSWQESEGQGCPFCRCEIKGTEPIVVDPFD

Cn1cnnc1CC1(c2cccc(NC(=O)c3cc(CCO)cc(C(F)(F)F)n3)c2)COC1 [Compound 506, 4-(2-hydroxyethyl)-N-(3-(3-((4-methyl-4H-1,2,4-triazol-3-yl)methyl)oxetan-3-yl)phenyl)-6-(trifluoromethyl)picolinamide]
IC50 (c-Cbl): 160 nM
(fold-selectivity) (Cbl-b): (1.1x)
IC50 (Cbl-b): 150 nM

Cn1cnnc1CC1(c2cccc(NC(=O)c3cc(CC(N)=O)cc(C(F)(F)F)n3)c2)COC1 [Compound 507, 4-(2-amino-2-oxoethyl)-N-(3-(3-((4-methyl-4H-1,2,4-triazol-3-yl)methyl)oxetan-3-yl)phenyl)-6-(trifluoromethyl)picolinamide]
IC50 (c-Cbl): 89 nM
(fold-selectivity) (Cbl-b): (0.89x)
IC50 (Cbl-b): 100 nM
